Source: US20060069132A1, “Azolecarboxamide herbicides” (priority 2004, published 2006)

Key:
velvetleaf = experiment: Test B pre-/postemergence herbicide test; type: in vivo, Abutilon theophrasti; settings: for Velvetleaf plant response rating: postemergence
How it was run: (§1)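 Formulation: non-phytotoxic solvent mix with surfactant. Timing: preemergence on seed and postemergence on 2–18 cm plants, applied concurrently. Readout after 13–15 d greenhouse: visual 0–100 control rating against controls.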

wheat = experiment: Test B postemergence herbicide test; type: in vivo, Triticum aestivum; set-up: key to Wheat plant response rating: 0 = no effect, 100 = complete control; settings: postemergence
How it was run: (§2)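 Each value is a visual 0–100 response rating taken against controls 13 to 15 days after treatment in the greenhouse. Plants received formulated chemical postemergence at the 1- to 4-leaf stage or, in flooded paddy, at the 2-leaf stage.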

barnyardgrass = experiment: Test B flooded paddy test; type: in vivo, Echinochloa crus-galli; settings: 1000 g ai/ha, scale 0 to 100 (0 no effect, 100 complete control)
How it was run: (§3)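 Paddy species grown to the 2-leaf stage under flooding; blackgrass sprayed postemergence at 2–18 cm (1- to 4-leaf stage). Plants kept in a greenhouse for 13 to 15 days, then visually rated against controls on 0 (no effect) to 100 (complete control).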

wild oat = experiment: Test B postemergence herbicide test; type: in vivo, Avena fatua; settings: postemergence
How it was run: as §2

pigweed = experiment: Test B pre-/postemergence herbicide test; type: in vivo, Amaranthus retroflexus; settings: for Pigweed plant response rating: postemergence
How it was run: as §1

cocklebur = experiment: Test B pre-/postemergence herbicide test; type: in vivo, Xanthium strumarium; settings: for Cocklebur plant response rating: postemergence, scale 0 (no effect) to 100 (complete control)
How it was run: (§4)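 Test chemicals in a non-phytotoxic solvent mixture with surfactant were applied preemergence to seeded species and postemergence to plants 2-18 cm tall (1- to 4-leaf stage); rice and barnyardgrass were also tested in a flooded paddy at the 2-leaf stage. Visual rating versus controls after 13-15 days in greenhouse, scale 0 (no effect) to 100 (complete control).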

Surinam grass = experiment: Test B pre-/postemergence herbicide test; type: in vivo, Urochloa decumbens; settings: for Surinam Grass plant response rating: postemergence
How it was run: as §1

blackgrass = experiment: Test B postemergence herbicide test; type: in vivo, Alopecurus myosuroides; settings: postemergence, visual rating, scale 0 (no effect) to 100 (complete control)
How it was run: as §3

rice = experiment: Test B flooded paddy test; type: in vivo, Oryza sativa; settings: 1000 g ai/ha, scale 0 to 100 (0 no effect, 100 complete control)
How it was run: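 Scale 0–100: zero equals no visible effect, 100 complete control, judged by eye relative to controls. Timing: 13 to 15 days in greenhouse post-treatment. Growth stage at spraying: two leaves (paddy) or one to four leaves, 2–18 cm (postemergence).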

corn = experiment: Test B pre-/postemergence herbicide test; type: in vivo, Zea mays; settings: for Corn plant response rating: postemergence
How it was run: as §1

[1] = tested on: small flower umbrella sedge; experiment: Test B flooded paddy test; type: in vivo, Cyperus difformis; settings: 1000 g ai/ha, scale 0 to 100 (0 no effect, 100 complete control)
How it was run: as §3

morningglory = experiment: Test B pre-/postemergence herbicide test; type: in vivo, Ipomoea coccinea; settings: for Morningglory plant response rating: postemergence
How it was run: as §4

giant foxtail = experiment: Test B pre-/postemergence herbicide test; type: in vivo, Setaria faberi; settings: for Foxtail, Giant plant response rating: postemergence
How it was run: as §1

large crabgrass = experiment: Test B pre-/postemergence herbicide test; type: in vivo, Digitaria sanguinalis; settings: for Crabgrass, Large plant response rating: postemergence
How it was run: as §1

lambsquarters = experiment: Test B pre-/postemergence herbicide test; type: in vivo, Chenopodium album; settings: for Lambsquarters plant response rating: postemergence
How it was run: as §1

[2] = 500 g ai/ha, visual rating 0-100, 0 no effect, 100 complete control, preemergence
[3] = 125 g ai/ha, visual rating, scale 0 (no effect) to 100 (complete control)
[4] = 500 g ai/ha, visual rating, scale 0 (no effect) to 100 (complete control)
[5] = preemergence, 125 g ai/ha, 0 to 100 scale, 0 is no effect, 100 is complete control
[6] = 125 g ai/ha, 0 = no effect, 100 = complete control, preemergence
[7] = 500 g ai/ha, visual rating, 0 = no effect, 100 = complete control, preemergence
[8] = 500 g ai/ha, scale 0 to 100, 0 is no effect, 100 is complete control

CCNC(=O)c1cc(C)nc(NC(=O)c2cc(C(C)(C)C)nn2CC)c1 [Compound 149]
Plant response rating, Velvetleaf (velvetleaf; [2]): 40 | Velvetleaf plant response rating (velvetleaf; [3]): 10 | Velvetleaf plant response rating (velvetleaf; [4]): 50 | Plant response rating, Velvetleaf (velvetleaf; [5]): 0 | Wheat plant response rating (wheat; [4]): 10 | Barnyardgrass plant response rating (barnyardgrass; visual rating, 13 to 15 days): 70 | Oat, Wild plant response rating (wild oat; [3]): 10 | Oat, Wild plant response rating (wild oat; [4]): 30 | Plant response rating, Pigweed (pigweed; [2]): 100 | Pigweed plant response rating (pigweed; [3]): 50 | Pigweed plant response rating (pigweed; [4]): 70 | Plant response rating, Pigweed (pigweed; [5]): 100 | Plant response rating, Cocklebur (cocklebur; [2]): 0 | Cocklebur plant response rating (cocklebur; 125 g ai/ha, visual rating): 20 | Cocklebur plant response rating (cocklebur; 500 g ai/ha, visual rating): 100 | Plant response rating, Cocklebur (cocklebur; [5]): 0 | Plant response rating, Surinam Grass (Surinam grass; [2]): 80 | Surinam Grass plant response rating (Surinam grass; [3]): 10 | Surinam Grass plant response rating (Surinam grass; [4]): 20 | Plant response rating, Surinam Grass (Surinam grass; [5]): 40 | Blackgrass plant response rating (blackgrass; 125 g ai/ha): 10 | Blackgrass plant response rating (blackgrass; 500 g ai/ha): 40 | Rice plant response rating (rice; visual rating, 13 to 15 days): 50 | Plant response rating, Corn (corn; [2]): 50 | Corn plant response rating (corn; [3]): 10 | Corn plant response rating (corn; [4]): 30 | Plant response rating, Corn (corn; [5]): 10 | Sedge, Umbrella plant response rating ([1]; visual rating, 13 to 15 days): 60 | Plant response rating, Morningglory (morningglory; [2]): 40 | Morningglory plant response rating (morningglory; [3]): 20 | Morningglory plant response rating (morningglory; [4]): 40 | Plant response rating, Morningglory (morningglory; [5]): 20 | Plant response rating, Foxtail, Giant (giant foxtail; [2]): 100 | Foxtail, Giant plant response rating (giant foxtail; [3]): 10 | Foxtail, Giant plant response rating (giant foxtail; [4]): 10 | Plant response rating, Foxtail, Giant (giant foxtail; [5]): 60 | Plant response rating, Crabgrass, Large (large crabgrass; [2]): 100 | Crabgrass, Large plant response rating (large crabgrass; [3]): 10 | Crabgrass, Large plant response rating (large crabgrass; [4]): 30 | Plant response rating, Crabgrass, Large (large crabgrass; [5]): 90 | Plant response rating, Lambsquarters (lambsquarters; [2]): 100 | Lambsquarters plant response rating (lambsquarters; [3]): 20 | Lambsquarters plant response rating (lambsquarters; [4]): 60 | Plant response rating, Lambsquarters (lambsquarters; [5]): 60

CCn1nc(C(C)(C)C)cc1C(=O)Nc1cc(C(=O)OC(C)C)c(F)cc1F [Compound 248]
Velvetleaf plant response rating (0 to 100 scale) (velvetleaf; [6]): 0 | Plant response rating, Velvetleaf (velvetleaf; [7]): 20 | Velvetleaf plant response rating (velvetleaf; [3]): 20 | Velvetleaf plant response rating (velvetleaf; [8]): 30 | Wheat plant response rating (wheat; [3]): 30 | Wheat plant response rating (wheat; [8]): 40 | Barnyardgrass plant response rating (barnyardgrass): 40 | Oat, Wild plant response rating (wild oat; [3]): 30 | Oat, Wild plant response rating (wild oat; [8]): 60 | Pigweed plant response rating (0 to 100 scale) (pigweed; [6]): 0 | Pigweed plant response rating (pigweed; [3]): 60 | Pigweed plant response rating (pigweed; [8]): 80 | Cocklebur plant response rating (0 to 100 scale) (cocklebur; [6]): 0 | Plant response rating, Cocklebur (cocklebur; [7]): 0 | Cocklebur plant response rating (cocklebur; 125 g ai/ha, visual rating): 30 | Cocklebur plant response rating (cocklebur; 500 g ai/ha, visual rating): 50 | Surinam Grass plant response rating (0 to 100 scale) (Surinam grass; [6]): 20 | Plant response rating, Surinam Grass (Surinam grass; [7]): 60 | Surinam Grass plant response rating (Surinam grass; [3]): 10 | Surinam Grass plant response rating (Surinam grass; [8]): 20 | Blackgrass plant response rating (blackgrass; 125 g ai/ha): 20 | Blackgrass plant response rating (blackgrass; 500 g ai/ha): 30 | Rice plant response rating (rice): 50 | Corn plant response rating (0 to 100 scale) (corn; [6]): 0 | Plant response rating, Corn (corn; [7]): 0 | Corn plant response rating (corn; [3]): 20 | Corn plant response rating (corn; [8]): 30 | Sedge, Umbrella plant response rating [1]: 50 | Morningglory plant response rating (0 to 100 scale) (morningglory; [6]): 0 | Plant response rating, Morningglory (morningglory; [7]): 0 | Morningglory plant response rating (morningglory; [3]): 20 | Morningglory plant response rating (morningglory; [8]): 50 | Foxtail, Giant plant response rating (0 to 100 scale) (giant foxtail; [6]): 20 | Plant response rating, Foxtail, Giant (giant foxtail; [7]): 60 | Foxtail, Giant plant response rating (giant foxtail; [3]): 20 | Foxtail, Giant plant response rating (giant foxtail; [8]): 30 | Crabgrass, Large plant response rating (0 to 100 scale) (large crabgrass; [6]): 20 | Plant response rating, Crabgrass, Large (large crabgrass; [7]): 40 | Crabgrass, Large plant response rating (large crabgrass; [3]): 10 | Crabgrass, Large plant response rating (large crabgrass; [8]): 20 | Lambsquarters plant response rating (0 to 100 scale) (lambsquarters; [6]): 0 | Lambsquarters plant response rating (lambsquarters; [3]): 60 | Lambsquarters plant response rating (lambsquarters; [8]): 70
